Patent US20250282785A1, “PYRROLIDINONE DERIVATIVES AS INHIBITORS OF NF KAPPA B INDUCING KINASE” (priority 2022, published 2025)
Where two headings read alike, the source gives them in different places.

Tests used:
[1] = test system: p-IKKα levels in L363 (NIK translocated multiple myeloma) cells; test: Effect of compounds on p-IKKα levels in L363 cells (AlphaLISA SureFire Ultra); type: cell-based; conditions: Homo sapiens, read-out: Assay 2 IC50
How it was run: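 L363 myeloma cells were BAFF-stimulated (250 ng/ml) overnight in DMEM/0.5% BSA, then exposed 6 h at 37° C to compound (11-point 1:3 series, 0.3% DMSO) with BAFF plus 10 uM MG132. p-IKKα (Ser 176/180) was read by AlphaLISA SureFire Ultra in lysates. IC50 came from sigmoidal fits normalized to stimulated and unstimulated controls.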

[2] = target: Recombinant Human NF-Kappab-Inducing Kinase (NIK/MAP3K14) (Homo sapiens, UniProt Q99558); test: Inhibition of auto-phosphorylation of recombinant human NIK/MAP3K14 (AlphaScreen); type: biochemical
Recombinant Human NF-Kappab-Inducing Kinase (NIK/MAP3K14), sequence (Q99558 whole entry): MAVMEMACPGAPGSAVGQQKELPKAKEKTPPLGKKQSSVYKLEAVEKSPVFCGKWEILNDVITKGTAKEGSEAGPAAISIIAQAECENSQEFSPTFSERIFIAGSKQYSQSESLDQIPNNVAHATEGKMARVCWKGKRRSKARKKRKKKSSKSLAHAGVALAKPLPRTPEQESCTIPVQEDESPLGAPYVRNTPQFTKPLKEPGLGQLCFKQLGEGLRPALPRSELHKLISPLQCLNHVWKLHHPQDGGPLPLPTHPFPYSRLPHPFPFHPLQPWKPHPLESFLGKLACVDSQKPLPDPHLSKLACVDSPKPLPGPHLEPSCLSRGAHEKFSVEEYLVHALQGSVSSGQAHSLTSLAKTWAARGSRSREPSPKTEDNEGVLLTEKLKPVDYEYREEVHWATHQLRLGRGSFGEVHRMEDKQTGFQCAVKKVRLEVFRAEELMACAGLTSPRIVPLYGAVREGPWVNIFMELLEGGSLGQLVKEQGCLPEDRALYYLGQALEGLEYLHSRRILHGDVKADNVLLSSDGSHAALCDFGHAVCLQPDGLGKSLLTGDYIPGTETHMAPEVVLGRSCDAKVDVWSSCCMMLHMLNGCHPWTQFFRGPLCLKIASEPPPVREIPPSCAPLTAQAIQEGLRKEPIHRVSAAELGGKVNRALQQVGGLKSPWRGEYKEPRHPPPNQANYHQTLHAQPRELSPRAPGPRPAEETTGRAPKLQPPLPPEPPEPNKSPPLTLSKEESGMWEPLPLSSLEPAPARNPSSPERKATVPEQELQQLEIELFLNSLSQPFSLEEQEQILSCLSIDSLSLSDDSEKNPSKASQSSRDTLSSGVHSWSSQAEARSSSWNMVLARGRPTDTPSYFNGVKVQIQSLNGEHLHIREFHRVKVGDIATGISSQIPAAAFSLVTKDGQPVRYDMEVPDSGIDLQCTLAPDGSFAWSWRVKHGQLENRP
How it was run: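 GST-tagged NIK (1 nM) auto-phosphorylation with 5 µM ATP in Tris pH 7.5/MgCl2 buffer, 0.7% DMSO, 2 h at 25 °C. Phospho-IKK Ser176/180 antibody detected by AlphaScreen beads. Signal normalized to full-enzyme and no-ATP controls; IC50 from sigmoidal fit of % inhibition vs log concentration.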

[3] = L-363, L363 cells, BAFF stimulated, MG132, 6 h, average of values
[4] = NIK/MAP3K14 auto-phosphorylation, 5 microM ATP, 1 nM enzyme, 2 h at 25° C., average of values, read-out: Assay 1 IC50

Row | Structure (SMILES) | IC50 [1, 3] [nM] | IC50 [2, 4] [nM] | IC50 ([1]; L-363, 6 h) [nM] | IC50 [2] [nM]
1 | CN1CC[C@@](O)(c2cc(-c3cccc(-n4ccc(C(N)=O)n4)c3)no2)C1=O [Example 193, (R)-1-(3-(5-(3-Hydroxy-1-methyl-2-oxopyrrolidin-3-yl)isoxazol-3-yl)phenyl)-1H-pyrazole-3-carboxamide] | > 501 | < 100 |  | 
2 | Cc1cn(-c2cccc(-c3cc([C@]4(O)CCN(C)C4=O)on3)c2)nc1C(N)=O [Example 192, (R)-1-(3-(5-(3-Hydroxy-1-methyl-2-oxopyrrolidin-3-yl)isoxazol-3-yl)phenyl)-4-methyl-1H-pyrazole-3-carboxamide] | > 501 | < 100 |  | 
3 | CC(C)Cc1sc(-c2cccc(-c3cc([C@]4(O)CCN(C)C4=O)on3)c2)nc1C(N)=O [Example 220, (R)-2-(3-(5-(3-Hydroxy-1-methyl-2-oxopyrrolidin-3-yl)isoxazol-3-yl)phenyl)-5-isobutylthiazole-4-carboxamide] |  |  | > 501 | < 100
4 | CN1CC[C@@](O)(c2cc(-c3ccnc(-c4cccc(C(N)=O)n4)c3)no2)C1=O [Example 168, (R)-4′-(5-(3-Hydroxy-1-methyl-2-oxopyrrolidin-3-yl)isoxazol-3-yl)-[2,2′-bipyridine]-6-carboxamide] | > 501 | < 100 |  | 
5 | CN1CC(F)(F)[C@@](O)(c2cc(-c3ccc(F)c(-c4nc(C(N)=O)c5[nH]ccc5n4)c3)no2)C1=O [Example 140, (R)-2-(5-(5-(4,4-Difluoro-3-hydroxy-1-methyl-2-oxopyrrolidin-3-yl)isoxazol-3-yl)-2-fluorophenyl)-5H-pyrrolo[3,2-d]pyrimidine-4-carboxamide] | < 100 | < 100 |  | 
6 | CN1CC[C@](O)(c2cn(-c3cccc(-c4cccc(C(N)=O)n4)c3)nn2)C1=O [Example 42, (S)-6-(3-(4-(3-Hydroxy-1-methyl-2-oxopyrrolidin-3-yl)-1H-1,2,3-triazol-1-yl)phenyl)picolinamide] | > 501 | > 501 |  | 
7 | CC(=O)Nc1cc(-c2cccc(-c3cc([C@]4(O)CCN(C)C4=O)on3)c2)ccn1 [Example 54, (R)—N-(4-(3-(5-(3-Hydroxy-1-methyl-2-oxopyrrolidin-3-yl)isoxazol-3-yl)phenyl)pyridin-2-yl)acetamide] | > 501 | 100 to 500 |  | 
8 | CN1CC[C@@](O)(c2cc(-c3cccc(-c4cn5cccc(C(N)=O)c5n4)c3)no2)C1=O [Example 92, (R)-2-(3-(5-(3-Hydroxy-1-methyl-2-oxopyrrolidin-3-yl)isoxazol-3-yl)phenyl) imidazo[1,2-a]pyridine-8-carboxamide] | > 501 | 100 to 500 |  | 
9 | CN1CC[C@@](O)(c2cc(-c3cccc(-c4ccc5nnc(N)n5c4)c3)no2)C1=O [Example 74, (R)-3-(3-(3-(3-Amino-[1,2,4]triazolo[4,3-a]pyridin-6-yl)phenyl)isoxazol-5-yl)-3-hydroxy-1-methylpyrrolidin-2-one] | > 501 | > 501 |  | 
10 | CN1CC[C@@](O)(c2cc(-c3cccc(-c4ncc(N)c(C(=O)N[C@@H]5CCOC5)n4)c3)no2)C1=O [Example 128, 5-Amino-2-(3-(5-((R)-3-hydroxy-1-methyl-2-oxopyrrolidin-3-yl)isoxazol-3-yl)phenyl)-N—((R)-tetrahydrofuran-3-yl)pyrimidine-4-carboxamide] | > 501 | < 100 |  | 
11 | CN1CC[C@@](O)(c2cc(-c3cccc(-c4cc(N)c5nc[nH]c(=O)c5n4)c3)no2)C1=O [Example 96, (R)-8-Amino-6-(3-(5-(3-hydroxy-1-methyl-2-oxopyrrolidin-3-yl)isoxazol-3-yl)phenyl)pyrido[3,2-d]pyrimidin-4(3H)-one] | > 501 | < 100 |  | 
12 | COc1ncccc1Nc1sc(-c2cccc(-c3cc([C@]4(O)CCN(C)C4=O)on3)c2)nc1C(N)=O [Example 213, (R)-2-(3-(5-(3-Hydroxy-1-methyl-2-oxopyrrolidin-3-yl)isoxazol-3-yl)phenyl)-5-((2-methoxypyridin-3-yl)amino)thiazole-4-carboxamide] | < 100 | < 100 |  | 
13 | CN1CC[C@@](O)(c2cc(-c3cccc(-c4cc(C(F)(F)F)c5cn[nH]c5n4)c3)no2)C1=O [Example 225, (R)-3-Hydroxy-1-methyl-3-(3-(3-(4-(trifluoromethyl)-1H-pyrazolo[3,4-b]pyridin-6-yl)phenyl)isoxazol-5-yl)pyrrolidin-2-one] | > 501 | 100 to 500 |  | 
14 | Cc1c(-c2cccc(-c3cc([C@]4(O)CCN(C)C4=O)on3)c2)nc(C(N)=O)n1C1CC1 [Example 122, (R)-1-Cyclopropyl-4-(3-(5-(3-hydroxy-1-methyl-2-oxopyrrolidin-3-yl)isoxazol-3-yl)phenyl)-5-methyl-1H-imidazole-2-carboxamide] | > 501 | 100 to 500 |  | 
15 | CN1CC[C@@](O)(c2cc(-c3cccc(-c4cc5cc[nH]c5c(C(N)=O)n4)c3)no2)C1=O [Example 139, (R)-5-(3-(5-(3-Hydroxy-1-methyl-2-oxopyrrolidin-3-yl)isoxazol-3-yl)phenyl)-1H-pyrrolo[2,3-c]pyridine-7-carboxamide] | < 100 | < 100 |  | 
16 | CN1CC[C@@](O)(c2cc(-c3ccnc(-c4ccc(N)c(C(N)=O)n4)c3)no2)C1=O [Example 169, (R)-5-Amino-4′-(5-(3-hydroxy-1-methyl-2-oxopyrrolidin-3-yl)isoxazol-3-yl)-[2,2′-bipyridine]-6-carboxamide] | < 100 | < 100 |  | 
17 | Cc1nc(N)c2nc(-c3cccc(-c4cc([C@]5(O)CCN(C)C5=O)no4)c3)ccc2n1 [Example 3, (R)-3-(5-(3-(4-Amino-2-methylpyrido[3,2-d]pyrimidin-6-yl)phenyl)isoxazol-3-yl)-3-hydroxy-1-methylpyrrolidin-2-one] | > 501 | < 100 |  | 
18 | Cc1ccc(C(N)=O)nc1-c1cccc(-c2cc([C@]3(O)CCN(C)C3=O)on2)c1 [Example 156, (R)-6-(3-(5-(3-hydroxy-1-methyl-2-oxopyrrolidin-3-yl)isoxazol-3-yl)phenyl)-5-methylpicolinamide] | > 501 | 100 to 500 |  | 
19 | CN1CC[C@@](O)(c2cc(-c3cccc(-c4nc(C(N)=O)n5c4CCCC5)c3)no2)C1=O [Example 93, (R)-1-(3-(5-(3-Hydroxy-1-methyl-2-oxopyrrolidin-3-yl)isoxazol-3-yl)phenyl)-5,6,7,8-tetrahydroimidazo[1,5-a]pyridine-3-carboxamide] | < 100 | < 100 |  | 
20 | COc1cc(-c2cccc(-c3cc([C@]4(O)CCN(C)C4=O)on3)c2)cc(C(N)=O)n1 [Example 47, (R)-4-(3-(5-(3-Hydroxy-1-methyl-2-oxopyrrolidin-3-yl)isoxazol-3-yl)phenyl)-6-methoxypicolinamide] | > 501 | > 501 |  | 
21 | Cc1cc(-c2cccc(-c3cc([C@]4(O)CCN(C)C4=O)on3)c2)nc(C(N)=O)c1N [Example 45, (R)-3-Amino-6-(3-(5-(3-hydroxy-1-methyl-2-oxopyrrolidin-3-yl)isoxazol-3-yl)phenyl)-4-methylpicolinamide] | < 100 | < 100 |  | 
22 | CN1CC[C@@](O)(c2cc(-c3cccc(-c4ccc5ncnc(N6CCC6)c5n4)c3)no2)C1=O [Example 11, (R)-3-(3-(3-(4-(Azetidin-1-yl)pyrido[3,2-d]pyrimidin-6-yl)phenyl)isoxazol-5-yl)-3-hydroxy-1-methylpyrrolidin-2-one] | > 501 | < 100 |  | 
